Experimental data: patent EP4063856A1, “METHODS AND COMPOSITIONS FOR IN VITRO SCREENING OF PROTEASE INHIBITORS” (Universiteit Antwerpen, priority 2021, dated 2022)
Counter-ions that a name gives are not always drawn.

Key:
[1] = target: T1, TMPRSS2 in prostasomes (Homo sapiens, UniProt O15393); assay: Inhibitor screening assay with intact prostasomes (trypsin-like activity, Boc-QAR-AMC substrate, fluorescence); assay type: biochemical; details: 15 minutes of incubation at 37°C, 30 µM Boc-QAR-AMC, read-out: Inhibitory effect (%): percentage of inhibited trypsin-like activity
T1 construct: Prostasomes or extracellular vesicles were isolated from semen samples using ultracentrifugation and size-exclusion chromatography; from tissue; host or cells: prostasomes (extracellular vesicles) from pooled semen samples
Procedure: Trypsin-like activity in the intact prostasomes was determined using 100 µM Boc-QAR-AMC (Bachem) in 50 mM Tris 120 mM NaCl pH 8,0. Fluorescence was measured kinetically at 37°C for 20 minutes on a Tecan F200 multi-plate reader at an excitation and emission wavelength of 380 nm and 465 nm, respectively.
On the one hand, intact prostasomes and on the other hand, medium containing recombinant TMPRSS2 (rTMPRSS2) were used. The prostasome suspension and rTMPRSS2 were diluted so that less than 10% substrate conversion was observed after 30 minutes of measurement and trypsin-like activities of both preparations were similar (approximately 0.025 U/L). The inhibitors were added to the samples in concentrations of 10 µM, 1 µM and 100 nM, followed by 15 minutes of incubation at 37°C. The substrate, Boc-QAR-AMC (Bachem), was added in a final concentration of 30 µM. […] Fluorescence was measured kinetically at 37°C for 20 minutes on a Tecan F200 multi-plate reader at an excitation and emission wavelength of 380 nm and 465 nm, respectively. The inhibitory effect was calculated by dividing the trypsin-like activity without inhibitor by the activity with inhibitor and was expressed as percentage inhibition.

[2] = target: T2, recombinant TMPRSS2 (rTMPRSS2) (Homo sapiens, UniProt O15393); assay: Inhibitor screening assay with medium containing recombinant TMPRSS2 (trypsin-like activity, Boc-QAR-AMC substrate, fluorescence); assay type: biochemical; details: 15 minutes of incubation at 37°C, 30 µM Boc-QAR-AMC, read-out: Inhibitory effect (%): percentage of inhibited trypsin-like activity
T2 construct: The expression vector, encoding the serine protease domain of TMPRSS2, a His-tag and a secretion signal; His-tag; secretion signal; made in house; host or cells: HEK293T cells, transient transfection; unpurified cell medium used
T2 sequence (O15393 256-492 limits assumed): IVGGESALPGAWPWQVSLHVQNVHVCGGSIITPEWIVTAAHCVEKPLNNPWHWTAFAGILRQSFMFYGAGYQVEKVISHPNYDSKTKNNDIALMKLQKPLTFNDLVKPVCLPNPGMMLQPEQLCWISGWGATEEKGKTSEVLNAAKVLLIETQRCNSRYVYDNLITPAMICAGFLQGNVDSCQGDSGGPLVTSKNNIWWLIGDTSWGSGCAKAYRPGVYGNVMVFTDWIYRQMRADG
Procedure: Cell medium containing the TMPRSS2 serine protease domain was collected 4 days post-transfection and trypsin-like activity was determined as described above.
On the one hand, intact prostasomes and on the other hand, medium containing recombinant TMPRSS2 (rTMPRSS2) were used. The prostasome suspension and rTMPRSS2 were diluted so that less than 10% substrate conversion was observed after 30 minutes of measurement and trypsin-like activities of both preparations were similar (approximately 0.025 U/L). The inhibitors were added to the samples in concentrations of 10 µM, 1 µM and 100 nM, followed by 15 minutes of incubation at 37°C. The substrate, Boc-QAR-AMC (Bachem), was added in a final concentration of 30 µM. This concentration was determined to be the Michaelis-Menten constant for Boc-QAR-AMC and recombinant TMPRSS2. Fluorescence was measured kinetically at 37°C for 20 minutes on a Tecan F200 multi-plate reader at an excitation and emission wavelength of 380 nm and 465 nm, respectively. The inhibitory effect was calculated by dividing the trypsin-like activity without inhibitor by the activity with inhibitor and was expressed as percentage inhibition.

T1 sequence (O15393 256-492 limits assumed): as above
T1 sequence (O15393 1-255 limits assumed): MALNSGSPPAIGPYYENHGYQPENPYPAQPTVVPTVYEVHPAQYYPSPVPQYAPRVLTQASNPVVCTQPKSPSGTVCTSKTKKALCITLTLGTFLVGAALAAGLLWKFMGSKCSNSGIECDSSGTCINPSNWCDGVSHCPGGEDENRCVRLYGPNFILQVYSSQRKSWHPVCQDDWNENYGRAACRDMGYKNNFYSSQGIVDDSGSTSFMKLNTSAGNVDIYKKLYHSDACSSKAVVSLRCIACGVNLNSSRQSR

CN(C)C(=O)COC(=O)Cc1ccc(OC(=O)c2ccc(NC(=N)N)cc2)cc1 [Camostat, camostat mesylate]
inhibition at 0.1 µM ([1]; 100 nM inhibitor): 99%
inhibition at 1 µM ([1]; 1 µM inhibitor): 100%
inhibition at 10 µM ([1]; 10 µM inhibitor): 100%
inhibition at 0.1 µM ([2]; 100 nM inhibitor): 73%
inhibition at 1 µM ([2]; 1 µM inhibitor): 88%
inhibition at 10 µM ([2]; 10 µM inhibitor): 100%
